This note sets out measurements from US20230263792A1, “USE OF 2,3,5-SUBSTITUTED THIOPHENE COMPOUND FOR PREVENTING, ALLEVIATION, OR TREATING MASTOCYTOSIS” (PHAROS IBIO CO., LTD, priority 2020, published 2023).

Test [1] concerns inflammatory response caused by mastocytosis (HMC-1.2 mouse model). The experiment in a line: Spleen/body weight ratio in mastocytosis mouse model (inflammatory response). In kind it is in vivo, NOD SCID female mice. How it is done:
As mice, 6-8-week-old NOD SCID female mice (18 to 22 g) (GemPharmatech Co., Ltd.) were prepared. Mice were acclimatized for 7 days before use in the experiment, and mice with abnormal health were excluded from the experiment. Mice were bred in a cage (300×180×150 mm) at a 22±3° C. and a relative humidity of 40% to 70% with a 12-hr light/12-hr dark cycle. Mice were allowed access to sterilized dry granular food (Beijing Keaoxieli Feed Co., Ltd., Beijing, China) and water ad libitum for the entire experimental period except for the period specified in the protocol.
50 ml of HMC-1.2 cells suspension-cultured in a 75T flask were placed in a conical tube and centrifuged at 1,200 rpm for 2 minutes, centrifuged with DPBS (Dulbecco's Phosphate-Buffered Saline, Welgene) at 1,200 rpm for 2 minutes, washed, and then suspended in RPMI1640 (Welgene) without antibiotics and fetal bovine serum (FBS). Then, the cells were stained with trypan blue, counted with a hemocytometer, and then HMC-1.2 cells (1×10^6) in a mixture of 0.1 ml L-15 and Matrigel (BD, cat. No. 356234) (1:1) were subcutaneously injected into the right flanks of mice anesthetized by intraperitoneal administration of Avertin (250 mg/kg), thus inducing tumors.
Thereafter, when the average tumor volume reached 150 to 200 mm^3, 4 mice were assigned to each group so that the average tumor volume at each group and treatment time was the same between the groups. Then, each of imatinib at a dose of 90 mg/kg, sunitinib at doses of 20 and 40 mg/kg, and PHI-101 at doses of 7, 20, 40 and 80 mg/kg was administered orally to the mice once daily for 3 weeks. For oral administration, each compound was dissolved in 5% 1-methyl-2-pyrrolidone and then completely mixed in 15% Kolliphor, 30% PEG E400 HS15 and 50% 0.05M citric acid.
Specifically, 3 weeks after administering each drug to the mastocytosis mouse model of Example 3-1, the mice were sacrificed, the body weight and spleen weight were measured using a digital scale, and then the spleen/body weight ratio was calculated.

The subject of test [2] is HMC-1.2 cell line. Put plainly: Annexin V-PI FACS apoptosis analysis, HMC-1.2. The settings on record: HMC-1.2, 0.1 and 1 μM, FIG. 7. Type of test: cell-based. As for the experimental part: Specifically, the c-kit D816V mutant Ba/F3 cell line was adjusted to a concentration of 1×10^6 cells/ml and treated with each of PHI-101 at concentrations of 0.1, 1 and 10 μM and the control compound sunitinib at concentrations of 1 and 10 μM for 24 hours. Thereafter, the medium was removed and the cells were washed once with 1 ml PBS. The PBS was removed by centrifugation at 1,000 rpm for 5 minutes. The cells were dissolved in 100 μl of PBS containing Ca^2+ and Mg^2+ and allowed to react with 5 μl of Annexin V for 20 minutes. After completion of the reaction, 400 μl of PBS containing Ca^2+ and Mg^2+ was added, and 5 μl of propidium iodide (PI) was added, and then the degree of apoptotic cell death was analyzed by FACS (fluorescence activated cell sorter) assay using a flow cytometer (FACS-C6, BD).
Specifically, the apoptotic effect of PHI-101 against the HMC-1.2 cell line was analyzed in the same manner as in Example 1-3, except that the HMC-1.2 cell line was treated with each of the control compounds at a concentration of 1 μM and PHI-101 at concentrations of 0.1 and 1 μM.

The subject of test [3] is c-kit D816V mutant Ba/F3 cell line. The experiment in a line: Cell cycle FACS assay, c-kit D816V Ba/F3. In kind it is cell-based. The settings on record: 1 μM, 24 hours, FIGS. 4 and 5. How it is done: The c-kit D816V mutant Ba/F3 cell line was treated with 1 μM of PHI-101, and then the SubG1/GO-1 population was analyzed by cell cycle FACS assay.
Specifically, the c-kit D816V mutant Ba/F3 cell line was adjusted to a concentration of 1×10^6 cells/ml and treated with each of PHI-101 and the control compound sunitinib at a concentration of 1 μM for 24 hours. Thereafter, the medium was removed, and the c-kit D816V mutant Ba/F3 cell line was fixed in 70% ethanol at 4° C. for 24 hours, and then incubated in a PBS buffer solution containing 40 μg/ml of propidium iodide (PI) and 100 μg/ml of RNase for 30 minutes to completely stain the total DNA. Cell cycle analysis of the stained cells was performed using a flow cytometer (FACS-C6, BD). The proportion of cells in G0/G1 phase, S phase and G2/M phase was measured, and based on the measurement results, the SubG1/G0-1 population was determined.
In general terms: A flow cytometer gives signals particle by particle.

The mark [4] stands for this setting: 7 mg/kg oral once daily for 3 weeks.
The mark [5] stands for this setting: 20 mg/kg oral once daily for 3 weeks.
The mark [6] stands for this setting: 40 mg/kg oral once daily for 3 weeks.
Where [7] appears, read: 80 mg/kg oral once daily for 3 weeks.

Turning to `NC(=O)Nc1cc(C#Cc2cccc(F)c2)sc1C(=O)N[C@H]1CCCNC1` [PHI-101], the “Spleen/body weight ratio % of control” value in test [1] (setting [4]) came out at 105.0%; in test [1] (setting [5]), 95.0%; in test [1] (setting [6]) it was 55.7%; in test [1] (setting [7]), 46.3%. Besides, the “Spleen/body weight ratio Inhibition (%)” value in test [1] (setting [4]) was −5%; in test [1] (setting [5]), 5%; in test [1] (setting [6]), 44.3%; in test [1] (setting [7]), 53.7%. In test [1] (7, 20, 40 and 80 mg/kg, FIGS. 13 and 14), the “spleen/body weight ratio compared to control group” value is “decreased the spleen/body weight ratio in a concentration-dependent manner”. Also, the “apoptosis induction (Annexin V-PI FACS)” value in test [2] is listed as “strongly induced apoptosis even at a concentration of 1 μM”. The “SubG1/G0-1 population (cell cycle progression)” value in test [3] is reported as “SubG1/G0-1 population was increased”.
